Assay results: patent EP1592418B1, “USE OF ENDOCANNABINOID-LIKE COMPOUNDS FOR TREATING CNS DEGENERATIVE DISORDERS” (Research & Innovation S.p.A., priority 2003, dated 2004)

Key:
[1] = system: Jurkat cells; test: Evaluation of cellular viability by MTT assay; format: cell-based, human; details: for Growth inhibition (% of control): 10 µM, incubated 18-24 hr, MTT, absorbance 570 nm
Procedure: Jurkat, an acute T-lymphoblastic leukemia cell line generated from a person, have been used. Cell culture have been cultured in RPMI-1640 culture medium containing 10% FBS.
Jurkat cells were cultured at 1x10^5 cells/ml in RPMI 1640 medium supplemented with 10% fetal bovine serum (FBS), 2mM L-glutamine and 100 U/ml penicillin + 100 ug/ml streptomycin.
To detect drug effect in vitro, MTT [3-(4,5-dimethylthiazol-2-yl)-2,5-diphenyltetrazolium bromide] assay was used as described (Carmichael J et al., 1987 Cancer Res. 47, 936-42). Briefly, cells were seeded in triplicate on 96-well culture plates at a density of 20000 cells/well. The drugs were added in order to have the final concentration of 10 µM (1 µl of a solution of 10mM in DMSO) and incubated for 18-24 hr. Then MTT (0.5 mg/ml) was added to each well, and plates were incubated for an additional 1 to 3 hr in the dark at 37 °C. After this time the MTT solution was aspirated from the wells and 0.1 ml of DMSO was added. The plates were allowed to stand for 10 min, and then the absorbance was determined in a SpectraCount (Packard) microplate reader at 570 nm. The drug effect was determined by comparing absorbances of treated and untreated cells.

[2] = Solubility (physico-chemical properties); format: physicochemical; details: for solubility: organic solvent or mixture, read-out: solubility in organic solvents
[3] = system: reverse passive Arthus reaction, mouse ear pinna; test: Reverse passive Arthus reaction (RPA) in the mouse ear pinna: oedema and Evans blue extravasation; format: in vivo; details: for Extravasation / Riduction % (extravasation): 10 mg/Kg i.p.; for Extravasation: Evans blue density at 620 nm in ear homogenate supernatant, Vehicle 0,90±0,06, Naïve 0,04±0,01; for Oedema (mg): 10 mg/Kg intraperitoneally 1 hour before induction, weight increase of 8 mm punch vs contralateral ear, three hours after antigen, Vehicle 49,8 ± 1,2, Naive 23,7 ± 1,2; for Riduction % (extravasation): reduction of extravasation versus Vehicle (0)
Description: The Arthus model (RPA) is a model of immune-complex mediated tissue damage that involves the passive subcutaneous introduction of an antibody and the systemic administration of the corresponding antigen. This inflammatory model has been used to test the in vivo activity of the synthesised molecules.
The reverse passive Arthus reaction is induced, in the mouse ear pinna, by the subcutaneous injection of an excess of IgG anti human albumin followed by i.v. adiministration of the corresponding Ag (i.e. human albumin) together with Evans blue, 2 mg for each mouse, for the evaluation of extravasation.
The tested molecules were solubilised in DMSO, cremophor and PBS in a ratio of 1:1:18 and administered usually by intraperitonelly at the dosage of 10 mg/Kg 1 hour before the induction of anafilactic reaction. The animals were sacrificed 3 hours after the molecule administration.
The oedema and the extravasations are evaluated tree hours after the i.v. administration of the antigen. The oedema is evaluated as the increase of weight of lesioned ear area dissected by a 8 mm biopsy punch as compared to the contralateral unlesioned auricular tissues. The extravasation is measured determining the Evans blue density at 620 nm in the supernatants deriving from ear homogenates following centrifugation at 10000 x g for 20 min.

| Compound | Growth inhibition (% of control) [1] | solubility ([2]; in DMSO and in chloroform) | solubility in water [2] | Extravasation ([3]; mouse ear) | Oedema (mg) ([3]; mouse ear) | Riduction % (extravasation) ([3]; mouse ear) | other results |
| --- | --- | --- | --- | --- | --- | --- | --- |
| CCCCCC/C=C\CCCCCCCC(=O)NC(C)C [Example 3, N-Isopropyl-palmitoleyl amide] | 60.5 % of control | > 10000 µg/mL | scarcely soluble |  |  |  |  |
| CCCCCCCC/C=C\CCCCCCCC(=O)NC(C)C [Example 5, N-Isopropyl-oleyl amide] | 66.6 % of control | > 10000 µg/mL | scarcely soluble |  |  |  |  |
| CCCCCCCCCCCCCCCCCCCC(=O)NC(C)C [Example 6, N-Isopropyl-arachidyl amide] | 41.0 % of control | > 10000 µg/mL | scarcely soluble |  |  |  |  |
| CCCCCCCCCCCCCCCCCC(=O)NCCc1ccccc1 [Example 7, N-β-phenylethyl-stearoyl amide] | 47.3 % of control | > 10000 µg/mL | scarcely soluble |  |  |  |  |
| CCCCCCCCCCCCCCCC(=O)OCCC [Example 8, n-propyl-palmitate] |  | > 10000 µg/mL | scarcely soluble |  |  |  |  |
| CCCCCCCCCCCCCCCCCC(=O)OCCC [Example 9, n-propyl-stearate] |  | > 10000 µg/mL | scarcely soluble |  |  |  |  |
| CCCCCCCCCCCCCCCC(=O)OC(C)C [Example 10, iso-propyl-palmitate] |  | > 10000 µg/mL | scarcely soluble |  |  |  |  |
| CCCCCCCCCCCCCCCCCC(=O)OC(C)C [Example 11, iso-propyl-stearate] |  | > 10000 µg/mL | scarcely soluble |  |  |  |  |
| CCCCCCCCCCCCCCCCCCNC(C)=O [Example 13, N-octadecyl-acetyl-amide] | 67.2 % of control | > 10000 µg/mL | scarcely soluble | 0,74±0,07 | 43,3 ± 0.6 mg | 17.2% |  |
| CCCCCCCCCCCCCCCC(=O)NC1CCCC1 [Example 14, N-cyclopentyl-palmitoyl amide] | 52.6 % of control |  | scarcely soluble |  |  |  | solubility in organic solvents ([2]; in DMSO and in chloroform): >10 mg/ml in DMSO and in chloroform; Extravasation ([3]; mouse ear, 10 mg/kg): 0,52±0,06; Oedema (mg) ([3]; mouse ear, 10 mg/kg): 39,5 ± 0.8 mg; Riduction % (extravasation) ([3]; mouse ear, 10 mg/kg): 32.3% |
| CCCCCCCCCCCCCCCCCC(=O)NC1CCCCC1 [Example 16, N-cyclohexyl-stearoyl amide] | 18.2 % of control | > 10000 µg/mL | scarcely soluble | 0,66±0,09 | 48,2 ± 1.8 mg | 26,7% |  |
| CCCCCCCCCCCCCCCC(=O)NCCC [Example 17, N-propyl-palmitoyl amide] | 21.4 % of control | > 10000 µg/mL | scarcely soluble | 0,52±0,12 | 32,3 ± 2.7 mg | 32.3% |  |
| CCCCCCCCCCCCCCCCCC(=O)NCCC [Example 18, N- propyl-stearoyl amide] | 17.3 % of control | > 10000 µg/mL | scarcely soluble | 0,54±0,03 | 33,3 ± 0.2 mg | 40.0% |  |
| CCCCCCCCCCCCCCCC(=O)NC1CC1 [Example 19, N-cyclopropyl-palmitoyl amide] | 56.2 % of control | > 10000 µg/mL | scarcely soluble | 0,32±0,02 | 31,8 ± 3.6 mg | 64.6% |  |
| CCCCCCCCCCCCCCCCCC(=O)NC1CC1 [Example 20, N-cyclopropyl-stearoyl amide] | 64.2 % of control | > 10000 µg/mL | scarcely soluble | 0,35±0,06 | 33,1 ± 0.9 mg | 61.2% |  |
| CCCCCCCCCCCCCCCC(=O)NCCCC [Example 23, N-butyl-palmitoyl amide] | 36.0 % of control | > 10000 µg/mL | scarcely soluble | 0,59±0,08 | 35,2 ± 1.7 mg | 34.5% |  |

| Compound | Growth inhibition (% of control) [1] | solubility ([2]; in DMSO and in chloroform) | solubility in water [2] | Extravasation ([3]; mouse ear) | Oedema (mg) ([3]; mouse ear) | Riduction % (extravasation) ([3]; mouse ear) | other results |
| --- | --- | --- | --- | --- | --- | --- | --- |
| CCCCCCCCCCCCCCCCCC(=O)NCCCC [Example 24, N- butyl-stearoyl amide] | 32.1 % of control | > 10000 µg/mL | scarcely soluble | 0,55±0,07 | 33,6 ± 1.2 mg | 38.9% |  |
| CCCCCCCCCCCCCCCCCC(=O)NCC(C)C [Example 26, N-isobutyl-stearoyl amide] |  | > 10000 µg/mL | scarcely soluble | 0,81±0,05 | 40,3 ± 0.7 mg | 10.0% |  |
| CCCCCCCCCCCCCCCCCC(=O)NC1CCC1 [Example 28, N-cyclobutyl-stearoyl amide] | 31.6 % of control | > 10000 µg/mL | scarcely soluble | 0,31±0,12 | 40,6 ± 2.6 mg | 65.6% |  |
| CCCCCCCCCCCCCCCC(=O)OCCCC [Example 29, n-butyl-palmitate] |  | > 10000 µg/mL | scarcely soluble |  |  |  |  |
| CCCCCCCCCCCCCCCCCC(=O)OCCCC [Example 30, n-butyl-stearate] |  | > 10000 µg/mL | scarcely soluble |  |  |  |  |
| CCCCCCCCCCCCCCCC(=O)OCC(C)C [Example 31, iso-butyl-palmitate] |  | > 10000 µg/mL | scarcely soluble |  |  |  |  |
| CCCCCCCCCCCCCCCCCC(=O)OCC(C)C [Example 32, iso-butyl-stearate] |  | > 10000 µg/mL | scarcely soluble |  |  |  |  |
| CCCCCCCCCCCCCCCC(=O)NCCCCC [Example 33, N-pentyl-palmitoyl amide] | 33.3 % of control | > 10000 µg/mL | scarcely soluble | 0,72±0,06 | 43,9 ± 2.4 mg | 20.0% |  |
| CCCCCCCCCCCCCCCC(=O)NC1CCCC1 [Example 37, N-cyclopentyl-palmitoyl amide] | 32.1 % of control | > 10000 µg/mL | scarcely soluble |  |  |  | Extravasation ([3]; mouse ear, 10 mg/kg): 0,64±0,13; Oedema (mg) ([3]; mouse ear, 10 mg/kg): 36,2 ± 0.9 mg; Riduction % (extravasation) ([3]; mouse ear, 10 mg/kg): 52.5% |
| CCCCCCCCCCCCCCCC(=O)OCCCCC [Example 39, n-pentyl-palmitate] |  | > 10000 µg/mL | scarcely soluble |  |  |  |  |
| CCCCCCCCCCCCCCCCCC(=O)OCCCCC [Example 40, n-pentyl-stearate] |  | > 10000 µg/mL | scarcely soluble |  |  |  |  |
| CCCCCCCCCCCCCCCC(=O)OC1CCCC1 [Example 41, cyclopentyl-palmitate] |  | > 10000 µg/mL | scarcely soluble |  |  |  |  |
| CCCC(C)(C)c1ccc2c(c1)OC(C)(C)[C@@H]1CC=C(C)C[C@@H]21 [JWH 133, reference compound] | 2.0 % of control |  |  |  |  |  | cellular death in vitro (in words) [1]: unable; reduction of oedema in vivo (in words) ([3]; mouse ear): unable; reduction of extravasation in vivo (in words) ([3]; mouse ear, i.p.): unable |
| CCCCCCCC/C=C\CCCCCCCC(N)=O [Oleylamide] | 22.1 % of control |  |  | 0,65±0,12 | 43,5 ± 2.6 mg | 21.8% |  |
| SR144528 [reference compound] |  |  |  |  |  |  | antagonism of the anti-inflammatory effect of cannabinoid, endocannabinoid or molecules object of the invention (in words) ([3]; CB2 selective antagonist): did not antagonize |
